Measurements taken from patent US9834571B2, “Compounds for inhibiting cell proliferation in EGFR-driven cancers” (ARIAD Pharmaceuticals, Inc., priority 2012, dated 2017).
Like-named read-outs stand apart in the source and are kept apart here.

Experiments:
[1] = molecular target: T1, BaF3 cells expressing the target EGFR mutations (Homo sapiens, UniProt P00533, T790M, cells depend on it, form not given); assay: Antiproliferative activity (MTT) against BaF3 cells expressing the target EGFR mutations; format: cell-based; settings: BAF3 EGFR DEL T790M PURO POOL cells, read-out: IC50, BAF3 EGFR DEL T790M PURO POOL
T1 construct: IC50, BAF3 EGFR DEL T790M PURO POOL; other: BAF3 EGFR DEL T790M PURO POOL cells, MTT; other: BAF3 EGFR DEL T790M PURO POOL cells; MTT
T1 sequence (P00533 with tags, fused parts or gaps DEL746-750/T790M, form open): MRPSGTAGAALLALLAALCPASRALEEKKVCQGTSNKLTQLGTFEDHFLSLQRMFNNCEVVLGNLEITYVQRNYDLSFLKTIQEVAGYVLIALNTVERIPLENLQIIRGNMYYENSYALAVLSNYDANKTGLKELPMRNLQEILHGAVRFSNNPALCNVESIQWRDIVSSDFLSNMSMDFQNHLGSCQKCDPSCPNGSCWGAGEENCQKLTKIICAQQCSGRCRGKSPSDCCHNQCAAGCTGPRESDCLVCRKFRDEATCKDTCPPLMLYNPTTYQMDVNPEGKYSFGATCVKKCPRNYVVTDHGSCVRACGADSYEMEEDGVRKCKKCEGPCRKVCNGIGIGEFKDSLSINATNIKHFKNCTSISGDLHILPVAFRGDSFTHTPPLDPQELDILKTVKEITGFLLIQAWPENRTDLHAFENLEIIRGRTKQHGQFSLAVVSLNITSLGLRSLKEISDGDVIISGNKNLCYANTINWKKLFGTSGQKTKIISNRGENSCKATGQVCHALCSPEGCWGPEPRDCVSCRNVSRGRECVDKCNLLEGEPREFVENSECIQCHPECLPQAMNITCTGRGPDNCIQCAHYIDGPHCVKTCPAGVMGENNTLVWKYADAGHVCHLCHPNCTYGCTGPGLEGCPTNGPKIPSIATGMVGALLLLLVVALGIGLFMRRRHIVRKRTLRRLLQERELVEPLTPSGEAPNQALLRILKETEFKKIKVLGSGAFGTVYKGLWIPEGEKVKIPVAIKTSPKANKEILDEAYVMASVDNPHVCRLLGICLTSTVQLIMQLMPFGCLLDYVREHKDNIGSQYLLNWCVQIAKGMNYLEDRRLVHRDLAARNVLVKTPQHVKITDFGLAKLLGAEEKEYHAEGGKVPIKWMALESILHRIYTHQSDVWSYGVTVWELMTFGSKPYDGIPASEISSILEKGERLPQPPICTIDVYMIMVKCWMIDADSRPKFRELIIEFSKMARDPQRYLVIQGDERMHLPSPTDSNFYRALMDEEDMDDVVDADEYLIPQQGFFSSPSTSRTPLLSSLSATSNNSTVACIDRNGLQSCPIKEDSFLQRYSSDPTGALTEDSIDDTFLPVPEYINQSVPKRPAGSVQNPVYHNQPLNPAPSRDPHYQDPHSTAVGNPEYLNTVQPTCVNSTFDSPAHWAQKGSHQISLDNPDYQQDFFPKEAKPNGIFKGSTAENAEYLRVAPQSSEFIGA
Outline: (§1)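 MTT read-out; BaF3 lines carrying EGFR mutations vs wildtype-EGFR BaF3 control.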

[2] = molecular target: T2, BaF3 cells expressing the target EGFR mutations (Homo sapiens, UniProt P00533, T790M/L858R, cells depend on it); assay: as above; format: cell-based; settings: BAF3 EGFR L858R-T790M PURO POOL cells, read-out: IC50, BAF3 EGFR L858R-T790M PURO POOL
T2 construct: IC50, BAF3 EGFR L858R-T790M PURO POOL; other: BAF3 EGFR L858R-T790M PURO POOL cells, MTT; IC50, BAF3 EGFR L858R-T790M PURO POOL; other: BAF3 EGFR L858R-T790M PURO POOL cells; MTT
T2 sequence (P00533 whole entry T790M/L858R): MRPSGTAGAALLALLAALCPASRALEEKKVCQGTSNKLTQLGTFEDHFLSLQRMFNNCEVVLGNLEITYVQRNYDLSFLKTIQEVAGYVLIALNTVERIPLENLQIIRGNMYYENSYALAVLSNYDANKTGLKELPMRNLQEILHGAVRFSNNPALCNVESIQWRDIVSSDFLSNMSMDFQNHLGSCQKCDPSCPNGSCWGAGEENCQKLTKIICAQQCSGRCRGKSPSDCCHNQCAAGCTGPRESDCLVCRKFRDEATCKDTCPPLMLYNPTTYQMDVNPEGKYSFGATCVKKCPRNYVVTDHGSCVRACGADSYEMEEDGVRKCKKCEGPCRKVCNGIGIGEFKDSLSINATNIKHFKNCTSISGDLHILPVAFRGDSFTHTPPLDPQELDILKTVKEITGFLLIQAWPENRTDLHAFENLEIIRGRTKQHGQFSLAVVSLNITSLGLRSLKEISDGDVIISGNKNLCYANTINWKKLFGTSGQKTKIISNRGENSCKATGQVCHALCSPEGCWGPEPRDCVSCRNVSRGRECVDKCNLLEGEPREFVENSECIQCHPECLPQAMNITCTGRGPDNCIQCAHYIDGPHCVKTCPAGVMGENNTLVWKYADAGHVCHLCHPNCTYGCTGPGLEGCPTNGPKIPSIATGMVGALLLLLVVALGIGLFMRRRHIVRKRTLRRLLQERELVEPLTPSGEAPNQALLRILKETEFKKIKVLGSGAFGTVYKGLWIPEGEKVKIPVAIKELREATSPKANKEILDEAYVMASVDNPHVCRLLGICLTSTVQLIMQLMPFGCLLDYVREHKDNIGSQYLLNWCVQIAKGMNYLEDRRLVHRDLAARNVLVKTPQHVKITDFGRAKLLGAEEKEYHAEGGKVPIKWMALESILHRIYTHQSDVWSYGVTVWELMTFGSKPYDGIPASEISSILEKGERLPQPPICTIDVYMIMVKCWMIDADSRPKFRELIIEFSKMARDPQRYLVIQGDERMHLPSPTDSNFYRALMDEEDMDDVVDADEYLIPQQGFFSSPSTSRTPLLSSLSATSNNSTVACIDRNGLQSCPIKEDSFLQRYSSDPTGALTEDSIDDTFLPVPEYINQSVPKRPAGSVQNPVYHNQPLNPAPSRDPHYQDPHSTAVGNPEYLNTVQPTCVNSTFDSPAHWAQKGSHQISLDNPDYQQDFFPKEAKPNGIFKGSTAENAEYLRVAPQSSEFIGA
Outline: as §1

[3] = test system: BaF3 cells expressing wildtype EGFR; assay: Antiproliferative activity (MTT) against control BaF3 cells expressing wildtype EGFR; format: cell-based; settings: Mus musculus
Outline: as §1

[4] = molecular target: human EGFR (native sequence) (Homo sapiens, UniProt P00533); assay: Kinase inhibitory activity against human EGFR (native sequence); format: biochemical; settings: 10 μM ATP, read-out: IC50 for kinase inhibition, EGFR
Outline: (§2)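 Singlicate 10 pt curves; top conc. 3 μM; ATP 10 μM.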

[5] = molecular target: EGFR L858R (Homo sapiens, UniProt P00533, L858R); assay: Kinase inhibitory activity against EGFR bearing the L858R mutation; format: biochemical; settings: 10 μM ATP, read-out: IC50 for kinase inhibition, EGFR L858R
EGFR L858R, sequence (P00533 25-1210 L858R): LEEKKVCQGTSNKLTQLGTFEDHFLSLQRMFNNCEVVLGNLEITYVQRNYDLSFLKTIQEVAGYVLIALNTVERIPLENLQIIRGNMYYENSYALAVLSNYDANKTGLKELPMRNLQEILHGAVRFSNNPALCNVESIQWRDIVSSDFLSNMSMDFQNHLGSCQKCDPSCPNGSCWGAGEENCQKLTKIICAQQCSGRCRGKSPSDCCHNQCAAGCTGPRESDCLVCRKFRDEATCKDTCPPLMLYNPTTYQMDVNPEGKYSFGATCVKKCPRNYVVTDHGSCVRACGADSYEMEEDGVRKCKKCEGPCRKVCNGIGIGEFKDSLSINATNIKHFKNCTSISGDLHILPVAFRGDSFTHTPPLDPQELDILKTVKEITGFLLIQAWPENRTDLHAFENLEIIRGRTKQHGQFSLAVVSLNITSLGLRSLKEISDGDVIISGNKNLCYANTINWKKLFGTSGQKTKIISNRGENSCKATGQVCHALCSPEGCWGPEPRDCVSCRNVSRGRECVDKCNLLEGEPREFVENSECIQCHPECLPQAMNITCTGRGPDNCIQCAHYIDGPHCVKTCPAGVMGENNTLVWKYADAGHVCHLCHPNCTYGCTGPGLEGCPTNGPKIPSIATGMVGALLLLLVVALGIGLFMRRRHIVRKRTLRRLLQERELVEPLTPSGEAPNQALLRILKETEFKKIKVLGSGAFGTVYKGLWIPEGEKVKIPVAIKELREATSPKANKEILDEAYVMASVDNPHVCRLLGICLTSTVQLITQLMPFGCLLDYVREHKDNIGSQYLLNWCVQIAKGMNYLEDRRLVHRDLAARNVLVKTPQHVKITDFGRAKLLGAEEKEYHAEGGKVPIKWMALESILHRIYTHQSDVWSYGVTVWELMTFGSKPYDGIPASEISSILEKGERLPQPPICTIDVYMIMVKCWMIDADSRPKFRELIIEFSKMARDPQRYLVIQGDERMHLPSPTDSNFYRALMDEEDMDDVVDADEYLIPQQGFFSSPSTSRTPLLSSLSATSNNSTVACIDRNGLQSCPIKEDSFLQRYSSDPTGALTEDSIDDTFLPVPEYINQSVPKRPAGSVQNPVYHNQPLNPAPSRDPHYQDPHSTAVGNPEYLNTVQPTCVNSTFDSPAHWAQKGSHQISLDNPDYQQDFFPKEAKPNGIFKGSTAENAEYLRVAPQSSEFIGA
Outline: as §2

[6] = molecular target: EGFR L858R/T790M (Homo sapiens, UniProt P00533, L858R/T790M); assay: Kinase inhibitory activity against EGFR bearing the L858R/T790M double mutation; format: biochemical; settings: 10 μM ATP, read-out: IC50 for kinase inhibition, EGFR L858R T790M
EGFR L858R/T790M, sequence (P00533 25-1210 T790M/L858R): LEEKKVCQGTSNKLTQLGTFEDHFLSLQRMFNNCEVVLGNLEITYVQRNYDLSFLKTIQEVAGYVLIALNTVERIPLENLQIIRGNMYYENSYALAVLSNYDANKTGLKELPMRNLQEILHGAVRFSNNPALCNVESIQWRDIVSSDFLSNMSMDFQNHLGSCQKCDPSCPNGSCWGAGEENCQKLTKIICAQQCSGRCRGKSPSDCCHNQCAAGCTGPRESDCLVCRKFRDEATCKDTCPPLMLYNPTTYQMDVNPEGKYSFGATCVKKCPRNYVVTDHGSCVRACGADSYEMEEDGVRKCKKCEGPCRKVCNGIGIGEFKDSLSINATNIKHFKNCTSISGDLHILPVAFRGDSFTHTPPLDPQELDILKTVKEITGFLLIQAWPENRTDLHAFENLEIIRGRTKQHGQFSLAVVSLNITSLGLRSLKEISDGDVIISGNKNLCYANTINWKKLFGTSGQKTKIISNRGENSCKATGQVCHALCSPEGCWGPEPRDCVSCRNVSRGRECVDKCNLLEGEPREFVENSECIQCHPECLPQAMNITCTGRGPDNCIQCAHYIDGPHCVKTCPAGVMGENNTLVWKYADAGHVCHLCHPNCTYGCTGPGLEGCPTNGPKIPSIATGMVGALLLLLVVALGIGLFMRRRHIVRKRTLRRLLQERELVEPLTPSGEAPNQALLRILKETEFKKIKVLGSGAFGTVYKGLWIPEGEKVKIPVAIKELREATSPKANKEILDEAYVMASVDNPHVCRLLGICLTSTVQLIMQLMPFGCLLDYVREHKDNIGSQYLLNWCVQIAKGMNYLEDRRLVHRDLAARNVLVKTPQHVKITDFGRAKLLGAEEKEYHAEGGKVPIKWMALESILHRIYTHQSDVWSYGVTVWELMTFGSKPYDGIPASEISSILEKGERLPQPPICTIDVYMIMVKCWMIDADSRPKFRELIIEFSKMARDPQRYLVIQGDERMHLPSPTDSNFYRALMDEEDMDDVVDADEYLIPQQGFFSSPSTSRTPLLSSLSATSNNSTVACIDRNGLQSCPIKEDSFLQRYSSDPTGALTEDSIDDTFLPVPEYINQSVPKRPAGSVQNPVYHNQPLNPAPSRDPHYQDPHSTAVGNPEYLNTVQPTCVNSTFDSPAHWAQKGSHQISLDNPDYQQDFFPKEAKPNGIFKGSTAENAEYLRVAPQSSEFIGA
Outline: as §2

[7] = 10 pt curves, 3 μM top concentration
[8] = EGFR L858R/T790M double mutation

GI50 [1]	GI50 [2]	IC50 [4, 7]	IC50 [5, 7]	IC50 [6, 7]	IC50 ([4]; human EGFR native sequence)	IC50 ([5]; EGFR L858R)	IC50 [6, 8]	SMILES	IC50 ([3]; BAF3 parental cells)	IC50 ([3]; BAF3 PARENTAL cells (control))
< 50 nM	101 to 250 nM	101 to 250 nM	< 50 nM	< 50 nM				C=CC(=O)Nc1ccc(Nc2ncc(Cl)c(Nc3cccc(OCCN4CCCCC4)c3P(C)(C)=O)n2)c(OC)c1 [Example 107, N-(4-((5-chloro-4-((2-(dimethylphosphoryl)-3-(2-(piperidin-1-yl)ethoxy)phenyl)amino)pyrimidin-2-yl)amino)-3-methoxyphenyl)acrylamide]	≥ 250 nM	
< 50 nM	< 50 nM				< 50 nM	< 50 nM	< 50 nM	COc1cc(F)c(NC(=O)C#CCN2CCCC2)cc1Nc1ncc(Cl)c(Nc2ccccc2P(C)(C)=O)n1 [Example 89, N-(5-((5-chloro-4-((2-(dimethylphosphoryl)phenyl)amino)pyrimidin-2-yl)amino)-2-fluoro-4-methoxyphenyl)-4-(pyrrolidin-1-yl)but-2-ynamide]		≥ 250 nM
< 50 nM	< 50 nM				50 to 100 nM	< 50 nM	< 50 nM	C=CC(=O)Nc1ccc(OC)c(Nc2ncc(Cl)c(Nc3ccc(OCC4CCOCC4)cc3P(C)(C)=O)n2)c1 [Example 100, N-(3-((5-chloro-4-((2-(dimethylphosphoryl)-4-((tetrahydro-2H-pyran-4-yl)methoxy)phenyl)amino)pyrimidin-2-yl)amino)-4-methoxyphenyl)acrylamide]		≥ 250 nM
< 50 nM	< 50 nM				< 50 nM	< 50 nM	< 50 nM	C=CC(=O)Nc1cc(Nc2ncc(Cl)c(Nc3ccccc3P(C)(C)=O)n2)c(OC)cc1N1CCCN(C)CC1 [Example 25, N-(5-((5-chloro-4-((2-(dimethylphosphoryl)phenyl)amino)pyrimidin-2-yl)amino)-4-methoxy-2-(4-methyl-1,4-diazepan-1-yl)phenyl)acrylamide]		≥ 250 nM
101 to 250 nM	101 to 250 nM				≥ 250 nM	< 50 nM	< 50 nM	C=CC(=O)Nc1cc(Nc2ncc(Cl)c(Nc3ccccc3P(C)(C)=O)n2)c(OC)cc1C#CC1(N(C)C)CC1 [Example 73, N-(5-((5-chloro-4-((2-(dimethylphosphoryl)phenyl)amino)pyrimidin-2-yl)amino)-2-((1-(dimethylamino)cyclopropyl)ethynyl)-4-methoxyphenyl)acrylamide]		≥ 250 nM
< 50 nM	< 50 nM				< 50 nM	< 50 nM	< 50 nM	C=CC(=O)Nc1cc(Nc2ncc(Cl)c(Nc3ccccc3P(C)(C)=O)n2)c(OC)cc1OC1CCN(C)C1 (stereo not drawn) [Example 13, N-(5-((5-chloro-4-((2-(dimethylphosphoryl)phenyl)amino)pyrimidin-2-yl)amino)-4-methoxy-2-((1-methylpyrrolidin-3-yl)oxy)phenyl)acrylamide]		≥ 250 nM
< 50 nM	< 50 nM	< 50 nM	< 50 nM	< 50 nM				C=CC(=O)Nc1cc(Nc2ncc(Cl)c(Nc3ccccc3P(C)(C)=O)n2)c(OC)cc1C#CCNC [Example 160, N-(5-((5-chloro-4-((2-(dimethylphosphoryl)phenyl)amino)pyrimidin-2-yl)amino)-4-methoxy-2-(3-(methylamino)prop-1-yn-1-yl)phenyl)acrylamide]	≥ 250 nM	
< 50 nM	< 50 nM				< 50 nM	< 50 nM	< 50 nM	COCC#CC(=O)Nc1ccc(OC)c(Nc2ncc(Cl)c(Nc3ccccc3P(C)(C)=O)n2)c1 [Example 97, N-(3-((5-chloro-4-((2-(dimethylphosphoryl)phenyl)amino)pyrimidin-2-yl)amino)-4-methoxyphenyl)-4-methoxybut-2-ynamide]		≥ 250 nM
< 50 nM	< 50 nM	< 50 nM	< 50 nM	< 50 nM				C=CC(=O)Nc1cc(Nc2ncc(Cl)c(Nc3ccccc3P(C)(C)=O)n2)c(OC)cc1C#CCN(C)CCOC [Example 161, N-(5-((5-chloro-4-((2-(dimethylphosphoryl)phenyl)amino)pyrimidin-2-yl)amino)-4-methoxy-2-(3-((2-methoxyethyl)(methyl)amino)prop-1-yn-1-yl)phenyl)acrylamide]	≥ 250 nM	
≥ 250 nM	≥ 250 nM				≥ 250 nM	< 50 nM	< 50 nM	COc1ccc(NC(=O)/C=C\C(=O)NCCN(C)C)cc1Nc1ncc(Cl)c(Nc2ccccc2P(C)(C)=O)n1 [Example 64, N1-(3-((5-chloro-4-((2-(dimethylphosphoryl)phenyl)amino)pyrimidin-2-yl)amino)-4-methoxyphenyl)-N4-(2-(dimethylamino)ethyl)maleamide]		≥ 250 nM
< 50 nM	101 to 250 nM				< 50 nM	< 50 nM	< 50 nM	C=CC(=O)Nc1cc(Nc2ncc(Cl)c(Nc3ccccc3P(C)(C)=O)n2)c(OC)cc1OCc1ccncc1 [Example 11, N-(5-((5-chloro-4-((2-(dimethylphosphoryl)phenyl)amino)pyrimidin-2-yl)amino)-4-methoxy-2-(pyridin-4-ylmethoxy)phenyl)acrylamide]		≥ 250 nM
< 50 nM	< 50 nM				< 50 nM	< 50 nM	< 50 nM	C=CC(=O)Nc1cc(Nc2ncc(Cl)c(Nc3ccccc3P(C)(C)=O)n2)c(OC)cc1N1CCC(N(C)CCOC)C1 (stereo not drawn) [Example 41, N-(5-((5-chloro-4-((2-(dimethylphosphoryl)phenyl)amino)pyrimidin-2-yl)amino)-4-methoxy-2-(3-((2-methoxyethyl)(methyl)amino)pyrrolidin-1-yl)phenyl)acrylamide]		≥ 250 nM
< 50 nM	< 50 nM				< 50 nM	< 50 nM	< 50 nM	COc1ccc(NC(=O)/C=C/CN2CCCCC2)cc1Nc1ncc(Cl)c(Nc2ccccc2P(C)(C)=O)n1 [Example 92, (E)—N-(3-((5-chloro-4-((2-(dimethylphosphoryl)phenyl)amino)pyrimidin-2-yl)amino)-4-methoxyphenyl)-4-(piperidin-1-yl)but-2-enamide]		≥ 250 nM
≥ 250 nM	≥ 250 nM				≥ 250 nM	50 to 100 nM	101 to 250 nM	COc1ccc(NC(=O)/C=C/C(=O)N(C)C)cc1Nc1ncc(Cl)c(Nc2ccccc2P(C)(C)=O)n1 [Example 60, N1-(3-((5-chloro-4-((2-(dimethylphosphoryl)phenyl)amino)pyrimidin-2-yl)amino)-4-methoxyphenyl)-N4,N4-dimethylfumaramide]		≥ 250 nM
50 to 100 nM	50 to 100 nM				< 50 nM	< 50 nM	< 50 nM	C=CC(=O)Nc1cc(Nc2ncc(Cl)c(Nc3ccccc3P(C)(C)=O)n2)c(OC)cc1N1CCC(N2CCN(C)CC2)CC1 [Example 22, N-(5-((5-chloro-4-((2-(dimethylphosphoryl)phenyl)amino)pyrimidin-2-yl)amino)-4-methoxy-2-(4-(4-methylpiperazin-1-yl)piperidin-1-yl)phenyl)acrylamide]		≥ 250 nM
< 50 nM	< 50 nM				< 50 nM	< 50 nM	< 50 nM	C=C(CN1CCC(N2CCN(C)CC2)CC1)C(=O)Nc1ccc(OC)c(Nc2ncc(Cl)c(Nc3ccccc3P(C)(C)=O)n2)c1 [Example 45, N-(3-((5-chloro-4-((2-(dimethylphosphoryl)phenyl)amino)pyrimidin-2-yl)amino)-4-methoxyphenyl)-2-((4-(4-methylpiperazin-1-yl)piperidin-1-yl)methyl)acrylamide]		≥ 250 nM
< 50 nM	< 50 nM				< 50 nM	< 50 nM	< 50 nM	C=CC(=O)Nc1cc(Nc2ncc(Cl)c(Nc3ccc(OCCN4CCCC4)cc3P(C)(C)=O)n2)c(OC)cc1F [Example 98, N-(5-((5-chloro-4-((2-(dimethylphosphoryl)-4-(2-(pyrrolidin-1-yl)ethoxy)phenyl)amino)pyrimidin-2-yl)amino)-2-fluoro-4-methoxyphenyl)acrylamide]		≥ 250 nM
